In patent US8303960B2, “Radiolabeled affibody molecules” (The United States of America, as represented by the …, priority 2007, dated 2012):
Several values for one entry are separate records, joined by “and”; a condition that tells them apart may be missing. Identical values can stand only once.

Key:
Type in all cases: in vivo, mice
[1] = system: HER2; assay: Ex-vivo western blot of tumor tissue lysates after 17-DMAG treatment; settings: for HER2 western blot signal, fraction of control lane (in parentheses): lane (3) relative to lane (1); for HER2 western blot, mean intensity of the signal: after 17-DMAG
Method: (§1) Mice bearing BT-474 or MCF7/clone18 subcutaneous tumors are treated with two doses (30-50 mg/kg, 12 or 24 h apart) of 17-DMAG. Animals (n=4-6) are scanned before, 36 h, and 84 h after the treatment. Immediately after the last scan, the animals are euthanized, and the tumors are frozen for further analysis. HER2 expression in the tumors is then measured ex-vivo by western blot (Table 2) and ELISA (Table 3).

[2] = system: HER2; assay: PET imaging of ^18F-ZHER2-affibody tumor uptake before and after 17-DMAG; settings: 84 h post-treatment; BT-474 and MCF7/clone 18 tumors
Method: as §1, with “3). In animals treated with 17-DMAG, the accumulation of radioactivity estimated by PET imaging decreases 50-70% at 84 h post-treatment (FIGS. 11 and 12). This change is confirmed by the biodistribution studies, see, e.g., FIG. 13.” for “3).”

[3] = system: HER2; assay: Ex-vivo ELISA of tumor tissue lysates after 17-DMAG treatment
Method: as §1

## CO[C@H]1/C=C\C=C(/C)C(=O)NC2=CC(=O)C(NCCN(C)C)=C(C[C@@H](C)C[C@H](OC)[C@H](O)[C@@H](C)/C=C(\C)[C@@H]1OC(N)=O)C2=O [17-DMAG, 17-dimethylaminoethylamino-17-demethoxygeldanamycin]
[1]; dry transfer
  HER2 western blot signal, fraction of control lane (in parentheses): (0.36)
[1]; dry transfer, lane (3)
  HER2 western blot, mean intensity of the signal: 43.24 DU
[1]; dry transfer, lanes (5) and (6)
  HER2 western blot, mean intensity of the signal: 99.85 DU and 88.68 DU
[1]; ex vivo analysis of tumor samples by western blots and ELISA
  decrease of HER2 expression: 50-70%
[1]; wet transfer
  HER2 western blot signal, fraction of control lane (in parentheses): (0.34)
[1]; wet transfer, lane (3)
  HER2 western blot, mean intensity of the signal: 83.08 DU
[1]; wet transfer, lanes (5) and (6)
  HER2 western blot, mean intensity of the signal: 187.69 DU and 156.39 DU
[2]
  decrease of accumulation of radioactivity estimated by PET imaging: 50-70%
[3]; BT-474 tumor after 17-DMAG, Trial 1
  HER2 in tissue lysate (ELISA): 541.41 fmol/mg protein
[3]; BT-474 tumor after 17-DMAG, Trial 2
  HER2 in tissue lysate (ELISA): 504.86 fmol/mg protein
[3]; BT-474 tumor, Trial 1
  HER2 (ELISA), fraction of untreated control (in parentheses): (0.35)
[3]; BT-474 tumor, Trial 2
  HER2 (ELISA), fraction of untreated control (in parentheses): (0.30)
[3]; MCF7/clone 18 tumor after 17-DMAG, Trial 1
  HER2 in tissue lysate (ELISA): 602.19 fmol/mg protein
[3]; MCF7/clone 18 tumor after 17-DMAG, Trial 2
  HER2 in tissue lysate (ELISA): 516.77 fmol/mg protein
[3]; MCF7/clone 18 tumor, Trial 1
  HER2 (ELISA), fraction of untreated control (in parentheses): (0.43)
[3]; MCF7/clone 18 tumor, Trial 2
  HER2 (ELISA), fraction of untreated control (in parentheses): (0.36)
